According to patent publication US6737383B1, “Herbicidal oxadiazolidines” (priority 1999, dated 2004):

What was measured:
[1] = system: blackgrass; test: Test B pre/postemergence blackgrass; format: in vivo, Alopecurus myosuroides
Summary of the method: (§1)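 Test chemicals in a non-phytotoxic solvent mixture with surfactant were sprayed preemergence onto planted seeds and postemergence onto plants 2 to 18 cm tall (1- to 4-leaf stage). After twelve to sixteen days in a greenhouse, injury was visually rated against untreated controls from 0 (no effect) to 10 (complete control).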

[2] = system: surinam grass; test: Test B pre/postemergence surinam grass; format: in vivo, Brachiaria decumbens
Summary of the method: as §1

[3] = system: cocklebur; test: Test B pre/postemergence cocklebur; format: in vivo, Xanthium strumarium
Summary of the method: as §1

[4] = system: corn; test: Test B pre/postemergence corn; format: in vivo, Zea mays
Summary of the method: as §1

[5] = system: crabgrass; test: Test B pre/postemergence crabgrass; format: in vivo, Digitaria sanguinalis
Summary of the method: as §1

[6] = system: giant foxtail; test: Test B pre/postemergence giant foxtail; format: in vivo, Setaria faberii
Summary of the method: as §1

[7] = system: morningglory; test: Test B pre/postemergence morningglory; format: in vivo, Ipomoea hederacea
Summary of the method: as §1

[8] = system: rape; test: Test B pre/postemergence rape; format: in vivo, Brassica napus
Summary of the method: as §1

[9] = system: soybean; test: Test B pre/postemergence soybean; format: in vivo, Glycine max
Summary of the method: as §1

[10] = system: sugar beet; test: Test B pre/postemergence sugar beet; format: in vivo, Beta vulgaris
Summary of the method: as §1

[11] = system: velvetleaf; test: Test B pre/postemergence velvetleaf; format: in vivo, Abutilon theophrasti
Summary of the method: as §1

[12] = system: wheat; test: Test B pre/postemergence wheat; format: in vivo, Triticum aestivum
Summary of the method: as §1

[13] = system: wild oat; test: Test B pre/postemergence wild oat; format: in vivo, Avena fatua
Summary of the method: as §1

[14] = system: purple nutsedge; test: Test B pre/postemergence purple nutsedge; format: in vivo, Cyperus rotundus
Summary of the method: as §1

[15] = system: smallflower flatsedge; test: Test B flood test smallflower flatsedge; format: in vivo, Cyperus difformis
Summary of the method: (§2)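 Plants were grown to the 2-leaf stage before treatment with test chemical, then held in a greenhouse for twelve to sixteen days. Injury was visually rated against untreated controls on a 0–10 scale, where 0 is no effect and 10 is complete control.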

[16] = system: duck salad; test: Test B flood test duck salad; format: in vivo, Heteranthera limosa
Summary of the method: as §2

[17] = Postemergence, Rate 62 g/ha, scale 0 to 10, 0 is no effect, 10 is complete control
[18] = Postemergence, Rate 125 g/ha, scale of 0 to 10 where 0 is no effect and 10 is complete control
[19] = Postemergence, Rate 250 g/ha, scale of 0 to 10, 0 is no effect, 10 is complete control
[20] = Preemergence, Rate 62 g/ha, scale of 0 to 10 where 0 is no effect and 10 is complete control
[21] = Preemergence, Rate 125 g/ha, scale of 0 to 10 where 0 is no effect and 10 is complete control
[22] = Preemergence, Rate 250 g/ha, scale 0 to 10 (0 no effect, 10 complete control)
[23] = Preemergence, Rate 500 g/ha, scale of 0 to 10 where 0 is no effect and 10 is complete control
[24] = Rate 500 g/ha, Postemergence, scale 0 to 10, 0 is no effect, 10 is complete control
[25] = Rate 62 g/ha, flood test species, Pre-emergence, visual evaluation after twelve to sixteen days
[26] = Rate 125 g/ha, under heading Pre-emergence, flood test species, visual evaluation after twelve to sixteen days
[27] = Rate 250 g/ha, Pre-emergence (flood test species), scale 0 to 10, 0 is no effect, 10 is complete control
[28] = Rate 500 g/ha, Pre-emergence section of Table B, 0 to 10 scale (0 no effect, 10 complete control)

CC(C)N(C(=O)n1oc(=O)n(CCCC#N)c1=O)c1ccc(F)cc1F [Compound 675]
8: B. signalgrass plant response rating [2, 19] | Plant response rating, B. signalgrass [2, 22] | B. signalgrass plant response rating [2, 24] | Crabgrass plant response rating [5, 18] | Plant response rating, Giant foxtail [6, 17] | Velvetleaf plant response rating [11, 24] | Nutsedge plant response rating [14, 24]
2: Morningglory plant response rating [7, 18] | Morningglory plant response rating [7, 19] | Rape plant response rating [8, 20] | Sugarbeets plant response rating [10, 18] | Velvetleaf plant response rating [11, 18] | Plant response rating, Wheat [12, 21]
3: Cocklebur plant response rating [3, 18] | Cocklebur plant response rating [3, 19] | Cocklebur plant response rating [3, 24] | Plant response rating, Corn [4, 21] | Plant response rating, Rape [8, 21] | Rape plant response rating [8, 24] | Wheat plant response rating [12, 18]
9: Plant response rating, Blackgrass [1, 21] | Plant response rating, Blackgrass [1, 22] | Blackgrass plant response rating [1, 24] | Plant response rating, Corn [4, 23] | Crabgrass plant response rating [5, 19] | Plant response rating, Crabgrass [5, 22] | Crabgrass plant response rating [5, 24] | Giant foxtail plant response rating [6, 18] | Giant foxtail plant response rating [6, 19] | Giant foxtail plant response rating [6, 20] | Giant foxtail plant response rating [6, 24] | Plant response rating, Wheat [12, 23]
0: Plant response rating, Cocklebur [3, 17] | Cocklebur plant response rating [3, 20] | Plant response rating, Cocklebur [3, 21] | Plant response rating, Cocklebur [3, 22] | Plant response rating, Cocklebur [3, 23] | Plant response rating, Corn [4, 17] | Corn plant response rating [4, 18] | Corn plant response rating [4, 19] | Corn plant response rating [4, 20] | Morningglory plant response rating [7, 20] | Plant response rating, Morningglory [7, 21] | Plant response rating, Rape [8, 17] | Rape plant response rating [8, 18] | Soybean plant response rating [9, 20] | Plant response rating, Soybean [9, 21] | Plant response rating, Sugarbeets [10, 17] | Plant response rating, Velvetleaf [11, 17] | Plant response rating, Wheat [12, 17] | Wheat plant response rating [12, 20] | Plant response rating, Wild oats [13, 17] | Wild oats plant response rating [13, 18] | Plant response rating, Nutsedge [14, 17] | Nutsedge plant response rating [14, 18] | Nutsedge plant response rating [14, 20] | Plant response rating, Nutsedge [14, 21] | Plant response rating, S. Flatsedge (0 to 10 scale, 0 is no effect, 10 is complete control) [15, 25] | S. Flatsedge plant response rating (0 to 10 scale, 0 is no effect, 10 is complete control) [15, 26] | S. Flatsedge plant response rating [15, 27] | S. Flatsedge plant response rating [15, 28] | Plant response rating, Ducksalad (0 to 10 scale, 0 is no effect, 10 is complete control) [16, 25] | Ducksalad plant response rating (0 to 10 scale, 0 is no effect, 10 is complete control) [16, 26] | Ducksalad plant response rating [16, 27] | Ducksalad plant response rating [16, 28]
1: Plant response rating, B. signalgrass [2, 17] | Plant response rating, Morningglory [7, 17]
4: B. signalgrass plant response rating [2, 18] | B. signalgrass plant response rating [2, 20] | Morningglory plant response rating [7, 24] | Plant response rating, Soybean [9, 17] | Plant response rating, Soybean [9, 23] | Sugarbeets plant response rating [10, 24] | Wild oats plant response rating [13, 20]
7: Blackgrass plant response rating [1, 19] | Plant response rating, Crabgrass [5, 21] | Plant response rating, Sugarbeets [10, 21] | Plant response rating, Velvetleaf [11, 21] | Wheat plant response rating [12, 24] | Wild oats plant response rating [13, 24] | Plant response rating, Nutsedge [14, 23]
5: Plant response rating, Blackgrass [1, 17] | Blackgrass plant response rating [1, 18] | Blackgrass plant response rating [1, 20] | Soybean plant response rating [9, 18] | Soybean plant response rating [9, 24] | Sugarbeets plant response rating [10, 20] | Plant response rating, Wild oats [13, 21]
6: Plant response rating, B. signalgrass [2, 21] | Plant response rating, Corn [4, 22] | Corn plant response rating [4, 24] | Plant response rating, Crabgrass [5, 17] | Crabgrass plant response rating [5, 20] | Plant response rating, Morningglory [7, 23] | Velvetleaf plant response rating [11, 20]
10: Plant response rating, Blackgrass [1, 23] | Plant response rating, B. signalgrass [2, 23] | Plant response rating, Crabgrass [5, 23] | Plant response rating, Giant foxtail [6, 21] | Plant response rating, Giant foxtail [6, 23] | Plant response rating, Rape [8, 23] | Plant response rating, Sugarbeets [10, 23] | Plant response rating, Velvetleaf [11, 23] | Plant response rating, Wild oats [13, 23]
